Measurements from ChEMBL document CHEMBL3272269, “Synthesis and antileukemic activities of furanyl, pyranyl, and ribosyl derivatives of 4-(3,3-dimethyl-1-triazeno)imidazole-5-carboxamide and 3-(3,3-dimethyl-1-triazeno)pyrazole-4-carboxamide” (J Med Chem, 1979).
Activity calls are given as the source filed them. No cut-off for these calls is given here.

Legend:
Mus musculus [1] = assay: Toxicity in mouse L1210 cells allografted mouse assessed as reduction in body weight at 200 mg/kg administered on day 1 followed by 5 injections with 1 day interval; assay type: organism-based; parameters: dose 200 mg/kg; settings: in vivo, 24 h
L1210 [2] = assay: Antitumor activity against mouse L1210 cells allografted in mouse assessed as survival at 200 mg/kg administered on day 1 followed by 5 injections with 1 day interval; assay type: functional, organism-based; parameters: dose 200 mg/kg
L1210 [3] = assay: Antitumor activity against mouse L1210 cells allografted in mouse assessed as increase in survival at 200 mg/kg administered on day 1 followed by 5 injections with 1 day interval relative to control; assay type: functional
Mus musculus [4] = assay: Toxicity in mouse L1210 cells allografted BDF1 mouse assessed as reduction in body weight at 400 mg/kg administered on day 1 followed by 3 injections with 4 day interval; assay type: organism-based; parameters: dose 400 mg/kg; settings: in vivo, 96 h
Mus musculus [5] = assay: Toxicity in mouse L1210 cells allografted BDF1 mouse assessed as reduction in body weight at 200 mg/kg administered on day 1 followed by 3 injections with 4 day interval; assay type: organism-based; parameters: dose 200 mg/kg; settings: in vivo, 96 h
Mus musculus [6] = assay: Toxicity in mouse L1210 cells allografted BDF1 mouse assessed as reduction in body weight at 100 mg/kg administered on day 1 followed by 3 injections with 4 day interval; assay type: organism-based; parameters: dose 100 mg/kg; settings: in vivo, 96 h
Mus musculus [7] = assay: Toxicity in mouse L1210 cells allografted BDF1 mouse assessed as reduction in body weight at 200 mg/kg administered on day 1 followed by 9 injections with 1 day interval; assay type: organism-based; parameters: dose 200 mg/kg; settings: in vivo, 24 h
L1210 [8] = assay: Antitumor activity against mouse L1210 cells allografted in mouse assessed as survival at 400 mg/kg administered on day 1 followed by 3 injections with 4 day interval; assay type: functional, organism-based; parameters: dose 400 mg/kg
L1210 [9] = assay: Antitumor activity against mouse L1210 cells allografted in mouse assessed as survival at 200 mg/kg administered on day 1 followed by 3 injections with 4 day interval; assay type: functional, organism-based; parameters: dose 200 mg/kg
L1210 [10] = assay: Antitumor activity against mouse L1210 cells allografted in mouse assessed as survival at 100 mg/kg administered on day 1 followed by 3 injections with 4 day interval; assay type: functional, organism-based; parameters: dose 100 mg/kg
L1210 [11] = assay: Antitumor activity against mouse L1210 cells allografted in mouse assessed as survival at 200 mg/kg administered on day 1 followed by 9 injections with 1 day interval; assay type: functional, organism-based; parameters: dose 200 mg/kg
L1210 [12] = assay: Antitumor activity against mouse L1210 cells allografted in mouse assessed as increase in survival at 400 mg/kg administered on day 1 followed by 3 injections with 4 day interval relative to control; assay type: functional
L1210 [13] = assay: Antitumor activity against mouse L1210 cells allografted in mouse assessed as increase in survival at 200 mg/kg administered on day 1 followed by 3 injections with 4 day interval relative to control; assay type: functional
L1210 [14] = assay: Antitumor activity against mouse L1210 cells allografted in mouse assessed as increase in survival at 100 mg/kg administered on day 1 followed by 3 injections with 4 day interval relative to control; assay type: functional
L1210 [15] = assay: Antitumor activity against mouse L1210 cells allografted in mouse assessed as increase in survival at 200 mg/kg administered on day 1 followed by 9 injections with 1 day interval relative to control; assay type: functional
Mus musculus [16] = assay: Toxicity in mouse L1210 cells allografted BDF1 mouse assessed as reduction in body weight at 180 mg/kg administered on day 1 followed by 9 injections with 1 day interval; assay type: organism-based; parameters: dose 180 mg/kg; settings: in vivo, 24 h
Mus musculus [17] = assay: Toxicity in mouse L1210 cells allografted BDF1 mouse assessed as reduction in body weight at 109 mg/kg administered on day 1 followed by 9 injections with 1 day interval; assay type: organism-based; parameters: dose 109 mg/kg; settings: in vivo, 24 h
Mus musculus [18] = assay: Toxicity in mouse L1210 cells allografted BDF1 mouse assessed as reduction in body weight at 65 mg/kg administered on day 1 followed by 9 injections with 1 day interval; assay type: organism-based; parameters: dose 65 mg/kg; settings: in vivo, 24 h
Mus musculus [19] = assay: Toxicity in mouse L1210 cells allografted mouse assessed as reduction in body weight at 100 mg/kg administered on day 1 followed by 5 injections with 1 day interval; assay type: organism-based; parameters: dose 100 mg/kg; settings: in vivo, 24 h
Mus musculus [20] = assay: Toxicity in mouse L1210 cells allografted mouse assessed as reduction in body weight at 400 mg/kg administered on day 1 followed by 5 injections with 1 day interval; assay type: organism-based; parameters: dose 400 mg/kg; settings: in vivo, 24 h
L1210 [21] = assay: Antitumor activity against mouse L1210 cells allografted in mouse assessed as survival at 100 mg/kg administered on day 1 followed by 5 injections with 1 day interval; assay type: functional, organism-based; parameters: dose 100 mg/kg
L1210 [22] = assay: Antitumor activity against mouse L1210 cells allografted in mouse assessed as survival at 400 mg/kg administered on day 1 followed by 5 injections with 1 day interval; assay type: functional, organism-based; parameters: dose 400 mg/kg
L1210 [23] = assay: Antitumor activity against mouse L1210 cells allografted in mouse assessed as increase in survival at 100 mg/kg administered on day 1 followed by 5 injections with 1 day interval relative to control; assay type: functional
L1210 [24] = assay: Antitumor activity against mouse L1210 cells allografted in mouse assessed as increase in survival at 400 mg/kg administered on day 1 followed by 5 injections with 1 day interval relative to control; assay type: functional

Row | SMILES | Activity (Mus musculus [1]) [g] | Activity (L1210 [2]) | T/C (L1210 [3]) [%] | Activity (Mus musculus [4]) [g] | Activity (Mus musculus [5]) [g] | Activity (Mus musculus [6]) [g] | Activity (L1210 [8]) | Activity (L1210 [9]) | Activity (L1210 [10]) | T/C (L1210 [12]) [%] | T/C (L1210 [13]) [%] | T/C (L1210 [14]) [%] | Activity (Mus musculus [19]) [g] | Activity (L1210 [21]) | T/C (L1210 [23]) [%] | also measured
1 | CC(=O)OC[C@H]1O[C@@H](n2ncc(C(N)=O)c2/N=N/N(C)C)[C@H](OC(C)=O)[C@@H]1OC(C)=O | 2.3 | Active | 122 | – | – | – | – | – | – | – | – | – | – | – | – | –
2 | CC(=O)OC[C@H]1O[C@@H](n2cc(C(N)=O)c(/N=N/N(C)C)n2)[C@H](OC(C)=O)[C@@H]1OC(C)=O | – | – | – | 1.1 | 1.8 | 0.1 | Active | Active | Active | 89 | 105 | 100 | – | – | – | Activity (Mus musculus [7]): 2.8 g; Activity (L1210 [11]): Active; T/C (L1210 [15]): 107%
3 | CN(C)/N=N/c1[nH]ncc1C(N)=O | – | – | – | – | – | – | – | – | – | – | – | – | – | – | – | Activity (Mus musculus [16]): 4.9 g; Activity (Mus musculus [17]): 3.7 g; Activity (Mus musculus [18]): 3.2 g
4 | CC(=O)OC[C@H]1O[C@@H](n2cnc(/N=N/N(C)C)c2C(N)=O)[C@H](OC(C)=O)[C@@H]1OC(C)=O | 1.6 | Active | 124 | – | – | – | – | – | – | – | – | – | 1.5 | Active | 123 | Activity (Mus musculus [20]): 2.2 g; Activity (L1210 [22]): Active; T/C (L1210 [24]): 157%
5 | CN(C)/N=N/c1c(C(N)=O)cnn1C1CCCCO1 (configuration not stated) | – | – | – | 3.5 | 3.1 | 2.2 | Active | Active | Active | 123 | 117 | 107 | – | – | – | –
6 | CC(=O)OC[C@H]1O[C@@H](n2cnc(C(N)=O)c2/N=N/N(C)C)[C@H](OC(C)=O)[C@@H]1OC(C)=O | 0.9 | Active | 95 | – | – | – | – | – | – | – | – | – | 0.3 | Active | 104 | –
